“And” between values parts separate entries of the source, which are not always exact repeats. Equal entries are not always repeated.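 48-hour exposure; five concentrations; linearly interpolated endpoints. GI50: concentration for 50% inhibition of growth. TGI: total growth inhibition.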

Test systems include OVCAR-8 ovarian; MALME-3M melanoma; NCI-H460 lung; UACC-257 melanoma; NCI-H226 lung; SW-620 colon; SF-539 CNS; MDA-MB-435; NCI/ADR-RES ovarian; SR leukemia.
Assay in all cases: growth of human tumour cells (NCI), 48 h

In the case of `O=S1(=O)N2CN3CN(C2)CN1C3`, the GI50 with OVCAR-8 ovarian was 30.8 µM. Moreover, the TGI is 110 µM in the test on OVCAR-8 ovarian; 324 µM in the test with MALME-3M melanoma; 272 µM in the test on NCI-H460 lung; 94.3 µM in the test on UACC-257 melanoma; 188 µM in the test on NCI-H226 lung; 57.8 µM and 113 µM in the test on SW-620 colon.
As for `CCCCC1=CSC(c2ccccc2)=C(c2ccccc2)S1`, the TGI with SF-539 CNS, in the test on OVCAR-8 ovarian, in the test on NCI-H460 lung, with NCI-H226 lung and with SW-620 colon was > 100 µM each time.
On to `C[C@@]1([C@H](OC(=O)c2ccccc2)C(N)=O)CO1`, for which the GI50 is 17.8 µM in the test with MDA-MB-435; 21.6 µM in the test with SF-539 CNS; 20.1 µM in the test with OVCAR-8 ovarian; 28.3 µM in the test with MALME-3M melanoma; 20.6 µM with NCI-H460 lung; 43.7 µM in the test with UACC-257 melanoma. The GI50 is 16.4 µM in the test with NCI/ADR-RES ovarian and 22.6 µM with SW-620 colon. Further, the TGI in the test on MDA-MB-435 is 36 µM; in the test with SF-539 CNS, 55.7 µM; with OVCAR-8 ovarian, 46.1 µM; with MALME-3M melanoma, 58 µM; in the test on NCI-H460 lung, 53 µM; with UACC-257 melanoma, > 100 µM. Besides, the TGI turned out to be 44.3 µM with NCI/ADR-RES ovarian and 95.2 µM with SW-620 colon.
Consider `COc1cc2c(c(OC)c1OC)-c1ccc(NN(C(=O)c3ccccc3)C(=O)c3ccccc3)c(=O)cc1[C@@H](NC(C)=O)CC2` (tested in a mixture with another compound), for which the GI50 in the test on SF-539 CNS is 3.08 µM; in the test with OVCAR-8 ovarian it was 3.86 µM; in the test on MALME-3M melanoma, 17.6 µM; with NCI-H460 lung it was 2.98 µM; with SR leukemia, 3.76 µM; with UACC-257 melanoma it was 14.4 µM. Besides, the GI50 in the test with NCI/ADR-RES ovarian was 4.37 µM; with NCI-H226 lung it was 10.6 µM; in the test with SW-620 colon it was 3.73 µM. The TGI with SF-539 CNS was 10.5 µM; with OVCAR-8 ovarian it was 42.7 µM; with MALME-3M melanoma it was > 100 µM; in the test with NCI-H460 lung it was 11.2 µM; in the test with SR leukemia it was > 100 µM; in the test on UACC-257 melanoma it was 62.9 µM. Moreover, the results for the TGI with NCI/ADR-RES ovarian, in the test on NCI-H226 lung and in the test with SW-620 colon were > 100 µM, 37.4 µM and 15.3 µM, respectively.
Take `O=[N+]([O-])c1ccc(C2=Nc3ccccc3S(=O)C(c3ccccc3)C2)cc1` (configuration not stated): the TGI in the test with SF-539 CNS was 45 µM; in the test on OVCAR-8 ovarian, > 100 µM; in the test on MALME-3M melanoma, > 100 µM; in the test on NCI-H460 lung it was 71 µM; in the test on UACC-257 melanoma it was 55.3 µM; in the test on NCI-H226 lung, 49.4 µM. The same compound came in with a TGI with SW-620 colon of 52.8 µM.
As for `Nc1nncc2c1c(Br)cn2C1OC(CO)C(O)C1O` (configuration not stated), the TGI in the test on SF-539 CNS, with MALME-3M melanoma, with NCI-H460 lung, in the test on SR leukemia, with UACC-257 melanoma and with NCI-H226 lung was > 100 µM in each case. Further, in the test on SW-620 colon, the TGI is > 100 µM.
Consider `O=C(O/N=C1\CCCC\C1=C/c1ccccc1)c1ccc([N+](=O)[O-])cc1`, for which the TGI in the test on SF-539 CNS, in the test on OVCAR-8 ovarian, in the test on MALME-3M melanoma, with NCI-H460 lung, in the test with SR leukemia and in the test with NCI-H226 lung was > 100 µM in each case. For the same compound, in the test on SW-620 colon, the TGI is > 100 µM.
Turning to `Cc1ccc(NC(=O)CCCC(=O)CC(=O)c2ccc(Br)cc2)cc1`, the TGI in the test with SF-539 CNS, with OVCAR-8 ovarian, with MALME-3M melanoma, with NCI-H460 lung, in the test with SR leukemia and in the test with UACC-257 melanoma was > 100 µM in each case. Besides, the TGI in the test with NCI-H226 lung and with SW-620 colon was > 100 µM throughout.
For `O=C1c2ccccc2C(=O)c2cc3c(cc21)CS(=O)C3`, the TGI in the test with SF-539 CNS, in the test with OVCAR-8 ovarian, in the test with MALME-3M melanoma, in the test with NCI-H460 lung, in the test with UACC-257 melanoma and in the test with SW-620 colon was > 100 µM each time.
Take `O=C1C(c2ccccc2)=C(c2ccccc2)C(c2ccc(Cc3ccc(C4=C(c5ccccc5)C(=O)C(c5ccccc5)=C4c4ccccc4)cc3)cc2)=C1c1ccccc1`: the TGI in the test with SF-539 CNS, with OVCAR-8 ovarian, in the test with MALME-3M melanoma, in the test with NCI-H460 lung, in the test with SR leukemia and in the test with UACC-257 melanoma was > 100 µM in each case. Besides, the TGI with NCI-H226 lung and with SW-620 colon was > 100 µM throughout.
With `Cc1ccc(NC(=O)CCc2nc(=S)[nH][nH]2)cc1`, the TGI in the test with SF-539 CNS, in the test on OVCAR-8 ovarian, in the test with MALME-3M melanoma, with NCI-H460 lung, in the test with SR leukemia and with UACC-257 melanoma was > 100 µM throughout. The TGI in the test on NCI-H226 lung and with SW-620 colon was > 100 µM in each case.
In the case of `COc1cccc(/C=C/C(=O)c2ccc3cc(OC)ccc3c2)c1`, the GI50 with MDA-MB-435 is 7.38 µM; in the test with SF-539 CNS, 7.95 µM; with OVCAR-8 ovarian, 10.6 µM; in the test with NCI-H460 lung, 25.2 µM; with SR leukemia, 10.1 µM; in the test with UACC-257 melanoma it was > 50 µM. The GI50 with SW-620 colon is 7.03 µM. For the same compound, the TGI in the test on MDA-MB-435 is 19 µM; in the test with SF-539 CNS, 16.8 µM; in the test with OVCAR-8 ovarian it was 33.3 µM; in the test with NCI-H460 lung, > 50 µM; in the test with SR leukemia, > 50 µM; with UACC-257 melanoma, > 50 µM. The compound also gave a TGI in the test on SW-620 colon of 20.5 µM.
`N#CCCn1[nH]c(=O)c(Cl)c(Cl)c1=O`: the TGI with SF-539 CNS came out at 51.1 µM; in the test with OVCAR-8 ovarian, 32.9 µM; in the test with MALME-3M melanoma, 33 µM; in the test on NCI-H460 lung it was 28.3 µM; in the test on SR leukemia, 35.5 µM; in the test on UACC-257 melanoma, 37.7 µM. In addition, the TGI with NCI-H226 lung came out at 49.4 µM; with SW-620 colon, 31.8 µM.
Regarding `CCOC(=O)C(C)(NC(=O)c1ccc(NCc2ccc3nc(NC(=O)c4ccccc4)nc(NC(=O)c4ccccc4)c3c2)cc1)C(=O)OCC`, the TGI in the test with SF-539 CNS is 9.88 µM; in the test with OVCAR-8 ovarian, 17.8 µM; in the test with MALME-3M melanoma, 38 µM; in the test on NCI-H460 lung, 32.5 µM; in the test on SR leukemia, > 100 µM; in the test with UACC-257 melanoma, 36.4 µM. Besides, the TGI in the test with NCI-H226 lung was 28.4 µM; in the test on SW-620 colon it was > 100 µM.
